“And” between values parts separate entries of the source, which are not always exact repeats. Identical values can stand only once.
What was measured:
CT-26 tumor [1] = experiment: Efficacy experiment on Balb/c mouse CT-26 tumor model; format: in vivo; settings: for average tumor weight: Example 93, FIG. 6: tumors stripped after last administration on 17th day, vehicle group 2.7 g; for Relative tumor inhibition rate (%): Example 93: Chidamide 25 mg/kg, Example 3 20 mg/kg, intragastric once per day, 17 days, tumor volume vs vehicle control
Experimental: CT-26 cells were subjected to multiplication culture and kept in a logarithmic growth state. After the number of cells met the requirement, the cells were digested with trypsin and collected, washed sufficiently with a large amount of PBS twice to remove trypsin and serum components, centrifuged at room temperature and 800 rpm for 10 minutes, and the supernatant was discarded. The cells were resuspended in FBS-free DMEM medium and adjusted to reach a cell concentration of 3×10^7/mL.
Under aseptic condition, the cell suspension was injected into subcutaneous of back of […] at a dose of 100 μL/needle, one injection per Balb/c mouse. During the injection, 1 mL disposable medical syringe was used to ensure that the position and direction for inserting needle to each mouse was basically the same.
Eight days after cell inoculation, the tumor grew to an average volume of about 100 mm^3. The tumor-bearing mice were randomly divided into four groups (9 mice in each group), namely the vehicle control group, the chidamide group (25 mg/kg, intragastric administration, once per day), Example 3 group (20 mg/kg, intragastric administration, once per day), and the combination of Chidamide and Example 3 group, and then the mice were raised in cages after labeling, the mice was administered according to groups and observed for tumor formation every day. The body weight of each mouse was weighted before administration, and the dose was calculated according to per kilogram of body weight, that was, 10 μL of CMC-Na solution per gram of body weight for the vehicle control group, 10 μL of 2.5 mg/mL Chidamide-CMC-Na suspension per gram of body weight for the chidamide group (25 mg/kg), 10 μL of 2 mg/mL the compound of Example 3-CMC-Na suspension per gram of body weight for the Example 3 group (20 mg/kg), and 10 μL of CMC-Na suspension containing 2.5 mg/ml chidamide and 2 mg/ml the compound of Example 3 per gram of body weight for the combination group were administered intragastrically. The longest diameter of tumor (length) and the widest diameter (width) perpendicular thereto were measured by vernier caliper every 2 days, and the tumor volume was calculated by the formula TS=length×(width)^2/2 and recorded. Each mouse was intragastrically administered once per day at regular time; after the last administration on the 17th day, the mice were sacrificed and the tumors of tumor-bearing mice were stripped and weighed with […].
The relative tumor inhibition rate of each administration group was calculated according to the following formula: Relative tumor inhibition rate=(average tumor volume of the vehicle control group−average tumor volume of the administration group)/average tumor volume of the vehicle control group×100%

IDO in HeLa cell = target: T1, IDO in HeLa cell (Homo sapiens, UniProt P14902); experiment: Inhibition of IDO enzyme activity in HeLa cells by Chidamide in combination with IDO inhibitor; format: cell-based; settings: IFN-γ, 48 hours
T1 construct: 50 ng/ml cytokine human IFN-γ and drugs with different concentrations; endogenous in cells; host or cells: HeLa cells stimulated with human IFN-γ
Experimental: HeLa cells were digested by trypsin, collected and counted, then inoculated in a 96-well cell culture plate at 2×10^4 cells per well and cultured at 5% CO2 and 37° C. After the cells were inoculated overnight, the medium was replaced with 200 μM L-tryptophan phenol red-free DMEM medium, and 50 ng/ml cytokine human IFN-γ and drugs with different concentrations (administered according to the group and final concentration shown in FIG. 1) were added simultaneously, the vehicle control (DMSO) and cytokine-free and L-tryptophan negative control wells were set at the same time, and triplicate wells were set. After 48 hours of drug treatment, 200 μL of the supernatant from culture well was pipetted out, added with 40 μL of pre-prepared 30% (w/v) trichloroacetic acid solution, reacted at 65° C. for 20 minutes, and then centrifuged at 12000 rpm for 15 minutes. 100 μL of the supernatant was pipetted out and added into a 96-well flat bottom plate, then equal volume of 2% p-dimethylaminobenzaldehyde in glacial acetic acid was added and mixed well, and stood at room temperature for 10 minutes. The absorbance value of each well at wavelength of 492 nm was read with microplate reader (ELX800NB). After subtracting the cell-free medium OD492-BLK as a blank control from the reading of each well, the OD492-T of each dosing well with subtraction of the detection background and the […] of drug-free positive control well were obtained.
The relative enzyme activity inhibition rate against IDO of each dosing well cell was calculated according to the following formula: enzyme activity inhibition rate against IDO=(OD492−T0−OD492−T)/OD492−T0×100%

CT-26 tumor [2] = experiment: Efficacy experiment on Balb/c mouse CT-26 tumor model; format: in vivo; settings: method similar to Example 93
[3] = target: T2, human indoleamine 2,3-dioxygenase 1 (hIDO1) (Homo sapiens, UniProt P14902); experiment: Inhibitory activity test at cellular level: IFN-γ-induced HeLa cells, kynurenine colour reaction; format: cell-based; settings: 48 hours; for inhibition at 0.1 µM: 50 ng/ml human IFN-γ, 200 μM L-tryptophan, each test compound 100 nM, read-out: hIDO1-cell base inhibition rate (%); for EC50: human IFN-γ, read-out: hIDO1-cell base EC50
T2 construct: up-regulate the expression of endogenous IDO1 under the induction of human IFN-γ; endogenous in cells; host or cells: HeLa cells stimulated with human IFN-γ
Text: The subject of this assay was to comprehensively evaluate different compounds on their enzymatic inhibitory activity in vitro and on cell models against human indoleamine 2,3-dioxygenase 1 (hIDO1).
In the present application, the inventors used Hela cells expressing IDO1 induced by IFN-γ as a model, to test the IDO1 inhibitory activity of the compounds at the cellular level.
HeLa cells are human cervical cancer cell lines, which can up-regulate the expression of endogenous IDO1 under the induction of human IFN-γ. By adding the substrate L-tryptophan to cell culture medium, the enzymatic catalysis product kynurenine in cell supernatant was detected. In this experiment, the cultured Hela cells were used and co-incubated with different concentrations of test compounds under stimulation of human IFN-γ for a specified period of time, and the color reaction method of enzyme product and p-dimethylaminobenzaldehyde was used to detect the effect on IDO enzyme activity of cells treated by the test compounds.
(1) Hela cells were inoculated into 96-well culture plates at an appropriate concentration (about 20,000 cells/well). […] The cells were continuously cultured for 48 hours before detection.
(2) 200 μL of the supernatant in the culture well was pipetted out, added with 40 μL of the pre-prepared 30% (w/v) trichloroacetic acid solution, and reacted at 65° C. for 20 minutes, and then centrifuged at 12000 rpm for 15 minutes.
(3) 100 μL of the supernatant after centrifugation was pipetted out, added into a 96-well flat bottom plate, then added with an equal volume of 2% p-dimethylaminobenzaldehyde in glacial acetic acid and mixed well, and stood at room temperature for 10 minutes.
(4) microplate reader (ELX800NB) was used to detect the absorbance value of each well, and the detection wavelength was 492 nm.
In addition, after the cell enzyme activity inhibition rates of test compounds with different concentration gradients were separately calculated, their cell enzyme activity half inhibition concentrations (EC50) were calculated by using EC50 calculator.
According to the above-mentioned experimental method, the compounds of the present application were subjected to IDO1 enzymatic evaluation at cytological level (the concentration of each test compound was all 100 nM).
According to the above-mentioned experimental method, the compound of the present application was subjected to hIDO1-cell base EC50 detection.

hERG potassium channel = target: T3, hERG potassium channel (Homo sapiens, UniProt Q12809); experiment: hERG inhibitory activity assay (patch clamp method), HEK293 cells stably expressing hERG; format: cell-based; settings: whole-cell patch clamp, HEK293, 0.3-30 μM, room temperature; read-out: hERG inhibition EC50 value
T3 construct: expressed in transfected cells
Text: Non-cardiac drugs may cause the prolongation of myocardial action potential duration by inhibiting the hERG (IKr) channel, increasing the possibility of life-threatening torsade de pointes (TdP) ventricular arrhythmia. In this experiment, HEK293 cell line without endogenous IKr current was used as host cell (this cell line was widely used in the detection of hERG) to evaluate the cardiotoxicity of Example 85 in patent CN108203438A and Example 87 of the present application.
(1) HEK293 cell line stably expressing hERG potassium channel was cultured in DMEM medium containing 10% fetal bovine serum and 0.8 mg/mL G418 under the condition of 37° C. and 5% CO2. […]
A capillary glass tube was drawn into a recording electrode with a microelectrode puller. […] Then, slow capacitance compensation was performed, and the membrane capacitance and series resistance were recorded. […]
When the hERG current of the whole-cell recording was stabilized, the drug was administered. […] The current detected for each cell in the compound-free extracellular fluid was used as its own control group. […]
[formula] and then the inhibition rate corresponding to each concentration was calculated
[formula] For each concentration, mean number and standard error were calculated, and the following equation was used to calculate the half inhibitory concentration of each compound: […]

[4] = Example 89, Table 3: chidamide and Example 3 alone and in combination, concentrations per FIG. 1
[5] = Example 90, Table 4: chidamide and Example 20 alone and in combination, FIG. 2
[6] = Example 91, Table 5: chidamide and Example 72 alone and in combination, FIG. 3
[7] = Example 92, Table 6: chidamide and Example 87 alone and in combination, FIG. 4
[8] = Example 94, Table 8: chidamide and Example 20 alone and in combination
[9] = Example 95, Table 9: chidamide and Example 72 alone and in combination
[10] = Example 96, Table 10: chidamide and Example 87 alone and in combination

T2 sequence (P14902 whole entry): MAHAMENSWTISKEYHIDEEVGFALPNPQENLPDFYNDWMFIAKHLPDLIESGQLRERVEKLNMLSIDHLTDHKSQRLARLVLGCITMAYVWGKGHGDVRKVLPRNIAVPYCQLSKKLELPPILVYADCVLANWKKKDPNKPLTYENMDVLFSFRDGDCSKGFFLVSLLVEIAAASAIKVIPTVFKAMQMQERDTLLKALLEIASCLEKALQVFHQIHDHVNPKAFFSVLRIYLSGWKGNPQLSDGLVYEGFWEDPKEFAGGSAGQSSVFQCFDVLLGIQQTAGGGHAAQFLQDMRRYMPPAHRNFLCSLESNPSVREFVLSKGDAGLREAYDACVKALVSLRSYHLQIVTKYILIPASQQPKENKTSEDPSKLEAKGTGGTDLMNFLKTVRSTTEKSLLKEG
T1 sequence (P14902 whole entry): as above
T3 sequence (Q12809 whole entry): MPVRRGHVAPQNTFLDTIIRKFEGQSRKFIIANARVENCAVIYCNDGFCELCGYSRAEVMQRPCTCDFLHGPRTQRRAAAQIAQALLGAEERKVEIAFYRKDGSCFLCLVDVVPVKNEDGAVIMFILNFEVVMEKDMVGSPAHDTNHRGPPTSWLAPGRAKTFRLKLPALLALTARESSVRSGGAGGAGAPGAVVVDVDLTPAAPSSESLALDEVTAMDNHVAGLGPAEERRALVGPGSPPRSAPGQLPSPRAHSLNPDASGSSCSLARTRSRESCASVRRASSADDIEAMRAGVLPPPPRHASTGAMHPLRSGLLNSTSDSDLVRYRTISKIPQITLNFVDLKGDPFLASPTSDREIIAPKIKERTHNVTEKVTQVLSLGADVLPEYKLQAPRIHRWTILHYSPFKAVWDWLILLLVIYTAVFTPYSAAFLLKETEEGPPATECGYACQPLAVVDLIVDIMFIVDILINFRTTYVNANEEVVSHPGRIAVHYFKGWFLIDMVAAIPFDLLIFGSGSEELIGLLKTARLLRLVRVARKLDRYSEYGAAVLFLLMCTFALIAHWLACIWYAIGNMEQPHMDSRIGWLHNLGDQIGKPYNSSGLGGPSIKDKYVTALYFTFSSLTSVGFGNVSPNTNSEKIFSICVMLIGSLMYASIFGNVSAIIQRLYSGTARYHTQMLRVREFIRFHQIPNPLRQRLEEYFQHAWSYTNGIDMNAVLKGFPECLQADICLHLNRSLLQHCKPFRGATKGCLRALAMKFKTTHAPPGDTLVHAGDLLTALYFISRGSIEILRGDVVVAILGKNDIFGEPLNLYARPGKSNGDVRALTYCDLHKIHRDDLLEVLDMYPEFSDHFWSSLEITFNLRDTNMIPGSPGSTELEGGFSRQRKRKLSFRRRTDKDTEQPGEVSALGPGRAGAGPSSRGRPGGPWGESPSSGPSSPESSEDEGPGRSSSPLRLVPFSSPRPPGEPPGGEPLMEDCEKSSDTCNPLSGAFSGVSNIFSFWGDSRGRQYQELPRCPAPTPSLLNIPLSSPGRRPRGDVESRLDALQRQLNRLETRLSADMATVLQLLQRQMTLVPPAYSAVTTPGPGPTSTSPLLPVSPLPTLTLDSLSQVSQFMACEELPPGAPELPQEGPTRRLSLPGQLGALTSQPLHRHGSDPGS

SMILES	Average inhibition rate (%) against IDO (IDO in HeLa cell; [4]) [%]	Average inhibition rate (%) against IDO (IDO in HeLa cell; [5]) [%]	Average inhibition rate (%) against IDO (IDO in HeLa cell; [6]) [%]	Average inhibition rate (%) against IDO (IDO in HeLa cell; [7]) [%]	inhibition at 0.1 µM [3] [%]	EC50 [3] [nM]	average tumor weight (CT-26 tumor [1]) [g]	Relative tumor inhibition rate (%) (CT-26 tumor [1])	Relative tumor inhibition rate (%) (CT-26 tumor [2]; [8])	Relative tumor inhibition rate (%) (CT-26 tumor [2]; [9])	Relative tumor inhibition rate (%) (CT-26 tumor [2]; [10])	EC50 (hERG potassium channel) [nM]
Nc1cc(F)ccc1NC(=O)c1ccc(CNC(=O)/C=C/c2cccnc2)cc1 [Chidamide, reference compound]	24	22	23	23	–	–	1.6	33% and 33.6%	30	25.4	55	–
O=C(Nc1ccc(Cl)cc1)N1CC2(CC(Oc3ccnc4ccc(F)cc34)C2)C1 [Example 3, N-(4-chlorophenyl)-6-((6-fluoroquinolin-4-yl)oxy)-2-aza-spiro[3.3]heptan-2-carboxamide]	31	–	–	–	90	14	2.3	20% and 20.1%	–	–	–	–
CC(C(=O)Nc1ccc(Cl)cc1)N1CC2C(C1)C2Nc1ccnc2ccc(F)cc12 (centres unmarked) [Example 72, 2-(6-((6-fluoroquinolin-4-yl)amino)-3-aza-bicyclo[3.1.0]hexan-3-yl)-N-(4-chlorophenyl)propionamide]	–	–	36	–	88	8	–	–	–	7.6	–	–

Continued, in another order:

Average inhibition rate (%) against IDO (IDO in HeLa cell; [4]) [%]	Average inhibition rate (%) against IDO (IDO in HeLa cell; [5]) [%]	Average inhibition rate (%) against IDO (IDO in HeLa cell; [6]) [%]	Average inhibition rate (%) against IDO (IDO in HeLa cell; [7]) [%]	inhibition at 0.1 µM [3] [%]	EC50 [3] [nM]	SMILES	average tumor weight (CT-26 tumor [1]) [g]	Relative tumor inhibition rate (%) (CT-26 tumor [1])	Relative tumor inhibition rate (%) (CT-26 tumor [2]; [8])	Relative tumor inhibition rate (%) (CT-26 tumor [2]; [9])	Relative tumor inhibition rate (%) (CT-26 tumor [2]; [10])	EC50 (hERG potassium channel) [nM]
–	16	–	–	64	46	O=C(Nc1ccc2c(c1)OCO2)N1CC2(CC(Oc3ccnc4ccc(F)cc34)C2)C1 [Example 20, N-(benzo[d][1,3]dioxol-5-yl)-6-((6-fluoroquinolin-4-yl)oxy)-2-aza-spiro[3.3]heptan-2-carboxamide]	–	–	8.3	–	–	–
–	–	–	20	23	–	O=C(CNc1ccc2c(c1)OCO2)N1CCC(C(O)CC2c3c(F)cccc3-c3cncn32)CC1 (centres unmarked) [Example 87, 2-(benzo[d][1,3]dioxol-5-yl-amino)-1-(4-(2-(6-fluoro-5H-imidazo[5,1-a)isoindol-5-yl)-1-hydroxyethyl)piperidin-1-yl)ethyl-1-one]	–	–	–	–	45	4600

— patent US12551478B2, “Quinoline derivative having indoleamine-2,3-dioxygenase inhibitory activity” (SHENZHEN CHIPSCREEN BIOSCIENCES CO., LTD., priority 2018, dated 2026)
